Results as given in ChEMBL document CHEMBL4673388, “Enhancing Antimicrobial Peptide Potency through Multivalent Presentation on Coiled-Coil Nanofibrils” (ACS Med Chem Lett, 2021).
Values after ≈ are worked out from the molar mass of the structure shown. Active and inactive are the calls of the source. The calls are words filed in the database; no cut-off is given here. Residues, ends and D or L forms follow the SMILES beside them.

Columns and labels:
Staphylococcus aureus [1] = assay: Antibacterial activity against methicillin-resistant Staphylococcus aureus ATCC 43300 assessed as inhibition of bacterial growth incubated for 16 to 20 hrs by microdilution method; type: functional; conditions: time 16-20 hrs
Pseudomonas aeruginosa [2] = assay: Antibacterial activity against Pseudomonas aeruginosa ATCC 15442 assessed as inhibition of bacterial growth incubated for 16 to 20 hrs by microdilution method; type: functional; conditions: time 16-20 hrs
Staphylococcus aureus [3] = assay: Bactericidal activity against methicillin-resistant Staphylococcus aureus ATCC 43300 assessed as reduction in bacterial growth at MIC compound conjugated on alpha-helical coiled-coil FF03 peptide measured within 5 hrs by time kill assay; type: functional, organism-based; conditions: time hrs <=5
MCF7 [4] = assay: Cytotoxicity against human MCF7 cells up to 90 ug/ml measured after 48 hrs compound conjugated on alpha-helical coiled-coil FF03 peptide by CCK8 assay; type: cell-based; conditions: mcf7, 48 h, dose <=90 µg/ml
Staphylococcus aureus [5] = assay: Bactericidal activity against methicillin-resistant Staphylococcus aureus ATCC 43300 assessed as reduction in bacterial growth at MIC measured for 25 hrs by time kill assay; type: functional, organism-based
HEK293 [6] = assay: Cytotoxicity against human HEK293 cells up to 90 ug/ml measured after 48 hrs by CCK8 assay; type: cell-based; conditions: hek293, 48 h, dose <=90 µg/ml
Staphylococcus aureus [7] = assay: Antibacterial activity against Staphylococcus aureus ATCC 25923 assessed as inhibition of bacterial growth incubated for 16 to 20 hrs compound conjugated on alpha-helical coiled-coil FF03 peptide by microdilution method; type: functional; conditions: time 16-20 hrs
Staphylococcus aureus [8] = assay: Antibacterial activity against methicillin-resistant Staphylococcus aureus ATCC 43300 assessed as inhibition of bacterial growth incubated for 16 to 20 hrs compound conjugated on alpha-helical coiled-coil FF03 peptide by microdilution method; type: functional; conditions: time 16-20 hrs
Escherichia coli [9] = assay: Antibacterial activity against Escherichia coli ATCC 25922 assessed as inhibition of bacterial growth incubated for 16 to 20 hrs compound conjugated on alpha-helical coiled-coil FF03 peptide by microdilution method; type: functional; conditions: time 16-20 hrs
Pseudomonas aeruginosa [10] = assay: Antibacterial activity against Pseudomonas aeruginosa ATCC 15442 assessed as inhibition of bacterial growth incubated for 16 to 20 hrs compound conjugated on alpha-helical coiled-coil FF03 peptide by microdilution method; type: functional; conditions: time 16-20 hrs
Staphylococcus aureus [11] = assay: Antibacterial activity against Staphylococcus aureus ATCC 25923 assessed as inhibition of bacterial growth incubated for 16 to 20 hrs by microdilution method; type: functional; conditions: time 16-20 hrs
Cell membrane = assay: Disruption of cell membrane in methicillin-resistant Staphylococcus aureus ATCC 43300 assessed as complete rupture of bacterial cell surface at 9 ug/ml incubated for 3 hrs by scanning electron microscopy; type: subcellular; conditions: dose 9.0 µg/ml
HEK293 [12] = assay: Cytotoxicity against human HEK293 cells up to 90 ug/ml measured after 48 hrs compound conjugated on alpha-helical coiled-coil FF03 peptide by CCK8 assay; type: cell-based; conditions: hek293, 48 h, dose <=90 µg/ml
Escherichia coli [13] = assay: Antibacterial activity against Escherichia coli ATCC 25922 assessed as inhibition of bacterial growth incubated for 16 to 20 hrs by microdilution method; type: functional; conditions: time 16-20 hrs
[14] = Hemolytic activity in human red blood cells at 100 ug/ml incubated for 45 mins; type: ADME, cell-based, Erythrocyte; conditions: red blood cells (erythrocytes), at 100 µg/mL, read-out: Activity
MCF7 [15] = assay: Cytotoxicity against human MCF7 cells up to 90 ug/ml measured after 48 hrs by CCK8 assay; type: cell-based; conditions: mcf7, 48 h, dose <=90 µg/ml
[16] = Hemolytic activity in human red blood cells at 100 ug/ml incubated for 45 mins compound conjugated on alpha-helical colied-coil FF03 peptide; type: ADME, cell-based, Erythrocyte; conditions: red blood cells (erythrocytes), at 100 µg/mL, read-out: Activity

For CC[C@H]1OC(=O)[C@H](C)[C@@H](O[C@H]2C[C@@](C)(OC)[C@@H](O)[C@H](C)O2)[C@H](C)[C@@H](O[C@@H]2O[C@H](C)C[C@H](N(C)C)[C@H]2O)[C@](C)(O)C[C@@H](C)C(=O)[C@H](C)[C@@H](O)[C@]1(C)O [ERYTHROMYCIN], the MIC (Staphylococcus aureus [1]) was over 128 µM.
NC[C@H]1O[C@H](O[C@H]2[C@H](O)[C@@H](O[C@H]3O[C@H](CO)[C@@H](O)[C@H](N)[C@H]3O)[C@H](N)C[C@@H]2N)[C@H](O)[C@@H](O)[C@@H]1O [KANAMYCIN] showed an MIC (Staphylococcus aureus [1]) of over 128 µM.
With COc1cc(Cc2cnc(N)nc2N)cc(OC)c1OC [TRIMETHOPRIM] the MIC (Staphylococcus aureus [1]) was 2 µM (≈ 0.581 µg/mL).
For CC(C)C[C@H](NC(=O)[C@@H](N)CCCNC(=N)N)C(=O)N1CCC[C@H]1C(=O)N[C@@H](Cc1c[nH]c2ccccc12)C(=O)N[C@@H](CCCNC(=N)N)C(=O)N[C@@H](Cc1c[nH]c2ccccc12)C(=O)N1CCC[C@H]1C(=O)N[C@@H](CCCNC(=N)N)C(=O)N[C@@H](CCCNC(=N)N)C(=O)N1CCC[C@H]1C(=O)N[C@@H](Cc1c[nH]c2ccccc12)C(=O)N[C@@H](CCCNC(=N)N)C(=O)N[C@@H](CCCNC(=N)N)C(=O)O (H-RLPWRWPRRPWRR-OH), the MIC (Pseudomonas aeruginosa [2]) was 65.2 µM (≈ 125 µg/mL), the Activity (Staphylococcus aureus [3]) was “Active” and the MIC (Staphylococcus aureus [1]) was 130 µM (≈ 250 µg/mL). The Activity (MCF7 [4]) was “Non-Toxic”, the Activity (Staphylococcus aureus [5]) was “Active” and the Activity (HEK293 [6]) was “Non-Toxic”. It also gave an MIC (Staphylococcus aureus [7]) of 0.97 µM (≈ 1.86 µg/mL), an MIC (Staphylococcus aureus [8]) of 1.75 µM (≈ 3.36 µg/mL) and an MIC (Escherichia coli [9]) of 2.34 µM (≈ 4.49 µg/mL). The MIC (Pseudomonas aeruginosa [10]) was 1.36 µM (≈ 2.61 µg/mL), the MIC (Staphylococcus aureus [11]) was 65.2 µM (≈ 125 µg/mL) and the Activity (Cell membrane) was “Active”. The Activity (HEK293 [12]) was “Non-Toxic”, the MIC (Escherichia coli [13]) was 130 µM (≈ 250 µg/mL) and the hemolysis at 0.75 h, 100 ug/ml [14] was under 15%. The Activity (MCF7 [15]) was “Non-Toxic” and the hemolysis at 0.75 h, 100 ug/ml [16] was under 15%.
With CN[C@H](CC(C)C)C(=O)N[C@H]1C(=O)N[C@@H](CC(N)=O)C(=O)N[C@H]2C(=O)N[C@H]3C(=O)N[C@H](C(=O)N[C@H](C(=O)O)c4cc(O)cc(O)c4-c4cc3ccc4O)[C@H](O)c3ccc(c(Cl)c3)Oc3cc2cc(c3O[C@@H]2O[C@H](CO)[C@@H](O)[C@H](O)[C@H]2O[C@H]2C[C@](C)(N)[C@H](O)[C@H](C)O2)Oc2ccc(cc2Cl)[C@H]1O [VANCOMYCIN] the MIC (Staphylococcus aureus [1]) was 0.5 µM (≈ 0.725 µg/mL) and the MIC (Staphylococcus aureus [11]) was 1.38 µM (≈ 2 µg/mL).
Compound GENTAMICIN has an MIC (Pseudomonas aeruginosa [2]) of 1.63 µM.
Compound CC(=O)NC[C@H]1CN(c2ccc(N3CCOCC3)c(F)c2)C(=O)O1 [LINEZOLID] has an MIC (Staphylococcus aureus [1]) of 4 µM (≈ 1.35 µg/mL) and an MIC (Staphylococcus aureus [11]) of 1.5 µM (≈ 0.506 µg/mL).
